Experimental data taken from article PMC8759731, “Design, synthesis, and evaluation of novel coumarin-dithiocarbamate derivatives (IDs) as anti-colorectal cancer agents” (Journal of Enzyme Inhibition and Medicinal Chemistry, 2021).

Columns and labels:
[1] = biological target: T1, BRD4 (BD1) (Homo sapiens, UniProt O60885); assay: HTRF assay BRD4 (BD1); type: binding; conditions: 10 μM, read-out: Inhibitory rate at 10 μM, BRD4 (BD1)
T1 construct: purchased Reaction Biology Corp. RD-11-157
Description: (§1) In brief, compounds were serially diluted in Echo plate according to the plate map and DMSO’s final fraction is 0.1%. Then, transferring compounds and DMSO to 384-well assay plate by Echo. After that, 2× Protein and Peptide Mix was added to the assay plate and 2× Detection Mix was then added to assay plate and shook for 30 s. After incubating the plate at room temperature for 1.5 h, the HTRF signals (Excitation wavelength at 340 nm, Emission wavelength at 615 & 665 nm) was read on EnVision (PerkinElmer, UK). (+)-JQ1 (BPS Bioscience, Cat. No. 27402) was used as a positive control. BRD4-1 (RD-11–157) and BRD4-2 (RD-11–158) were purchased from Reaction Biology Corp. (PENN, USA). For Curve fitting, the inhibition values was calculated in Excel using Equation (1): Inhibition %=(Max-Signal)/(Max-Min)*100, and the IC50 values was calculated in XL-Fit using Equation (2): Y = Bottom + (Top-Bottom)/(1+(IC50/X)[…]), Y is %inhibition and X is compound concentration.

[2] = biological target: T2, BRD4 (BD2) (Homo sapiens, UniProt O60885); assay: HTRF assay BRD4 (BD2); type: binding; conditions: read-out: Inhibitory rate at 10 μM, BRD4 (BD2)
T2 construct: purchased Reaction Biology Corp. RD-11-158
Description: as §1

[3] = test system: RKO cells; assay: MTS cell viability assay, RKO cells; type: cell-based; conditions: Homo sapiens, 10 μM, 72 h
Excerpt: (§2) Human colorectal cancer cell lines including RKO, SW620 and SW480 were purchased from Chinese Academy of Sciences, a typical cell library culture preservation committee (Shanghai, China). Normal human colon epithelial cell line NCM460 was purchased from ATCC (Washington, DC, USA). RPMI-1640 medium (12633020), foetal bovine serum (FBS, 26170043), penicillin-streptomycin (10378016) and phosphate buffered saline (PBS, 70011044) were purchased from Gibco (Eggenstein, Germany). 5-Fluorouracil (5-FU, E0201010050, purity ≥98%) was purchased from Energy Chemical (Shanghai, China). Dimethyl sulfoxide (DMSO, 41639) was obtained from Sigma-Aldrich (St. Louis, MO). 3–(4,5-dimethylthiazol-2-yl)-5–(3-carboxymethoxyphenyl)-2–(4-sulfophenyl)-2H-tetrazolium (MTS, G1111) was purchased from Promega (Madison, WI, USA). All cell lines were cultured in RPMI-1640 medium supplemented with 10% FBS, penicillin (100 units/mL) and streptomycin ([…]) at 37 °C in a humidified atmosphere containing 5% CO2.
(§3) Cell viability was measured via MTS assay. RKO, SW620, SW480 and NCM460 cells were seeded in 96-well plates at a density of 5000 cells per well for 24 h. After treatment with the test compounds at indicated concentration for another 48 h or 72 h at 37 °C, MTS solution was added to each well and incubated for another 30 min at 37 °C. Then, the absorbance at 490 nm was measured by a BioTek Synergy H4 microplate Reader (Vermont, USA). The IC50 values were calculated with Graphpad 7.0 software packages.

[4] = MTS cell viability assay, NCM460 normal colon epithelial cells; type: cell-based, human; conditions: human, NCM460 normal colon epithelial cells, 10 μM
Excerpt: as §2, §3

[5] = test system: SW620 cells; assay: MTS cell viability assay, SW620 cells; type: cell-based; conditions: Homo sapiens, SW-620, 10 μM, 72 h
Excerpt: as §2, §3

[6] = test system: SW480 cells; assay: MTS cell viability assay, SW480 cells; type: cell-based; conditions: Homo sapiens, 10 μM, 72 h
Excerpt: as §2, §3

| inhibition at 10 µM [1] | melting point | inhibition at 10 µM [2] | Compound | viability at 10 µM [3] | viability at 48 h, 10 µM [4] | viability at 10 µM [5] | viability at 10 µM [6] |
| --- | --- | --- | --- | --- | --- | --- | --- |
| 6.2% | 144 to 145 °C | 5.8% | O=c1ccc2cc(CSC(=S)N3CCC3)ccc2o1 [ID-5, (2-Oxo-2H-chromen-6-yl)methyl azetidine-1-carbodithioate] |  |  |  |  |
| 1.6% | 52.3 to 53.2 °C | 3.3% | CCCN(CCC)C(=S)SCc1ccc2oc(=O)ccc2c1 [ID-3, (2-Oxo-2H-chromen-6-yl)methyl dipropylcarbamodithioate] |  |  |  |  |
| 11.8% | 181.5 to 182.4 °C | 8.4% | N#Cc1ccc(N2CCN(C(=S)SCc3ccc4oc(=O)ccc4c3)CC2)cc1 [ID-18, (2-Oxo-2H-chromen-6-yl)methyl 4–(4-cyanophenyl)piperazine-1-carbodithioate] |  |  |  |  |
| 27.2% | 135.4 to 136.3 °C | 19.6% | O=c1ccc2cc(CSC(=S)N3CCOCC3)ccc2o1 [ID-10, (2-Oxo-2H-chromen-6-yl)methyl morpholine-4-carbodithioate] |  |  |  |  |
| 14.4% | 73.6 to 74.5 °C | 10.8% | CC(C)N1CCN(C(=S)SCc2ccc3oc(=O)ccc3c2)CC1 [ID-13, (2-Oxo-2H-chromen-6-yl)methyl 4-isopropylpiperazine-1-carbodithioate] |  |  |  |  |
| 20.1% | 106.9 to 107.8 °C | 12.9% | O=c1ccc2cc(CSC(=S)N3CCN(C4CCCCC4)CC3)ccc2o1 [ID-16, (2-Oxo-2H-chromen-6-yl)methyl 4-cyclohexylpiperazine-1-carbodithioate] |  |  |  |  |
| 4.3% | 100.1 to 101 °C | 5.1% | CCN(CC)C(=S)SCc1ccc2oc(=O)ccc2c1 [ID-2, (2-Oxo-2H-chromen-6-yl)methyl diethylcarbamodithioate] |  |  |  |  |
| 6.3% | 72.6 to 73.5 °C | 5% | O=c1ccc2cc(CSC(=S)N3CCCCCC3)ccc2o1 [ID-9, (2-Oxo-2H-chromen-6-yl)methyl azepane-1-carbodithioate] |  |  |  |  |
|  |  |  | O=c1[nH]cc(F)c(=O)[nH]1 [5-FU, 5-Fluorouracil, reference compound] | 40.7% | 80.4% | 33.6% | 43.9% |
| 4.2% |  | 3.1% | CCCCN(CCCC)C(=S)SCc1ccc2oc(=O)ccc2c1 [ID-4, (2-Oxo-2H-chromen-6-yl)methyl dibutylcarbamodithioate] |  |  |  |  |
| 2.2% | 151.6 to 152.5 °C | 1.5% | CN(C)C(=S)SCc1ccc2oc(=O)ccc2c1 [ID-1, (2-Oxo-2H-chromen-6-yl)methyl dimethylcarbamodithioate] |  |  |  |  |
| 7.8% | 130.1 to 131 °C | 8.2% | O=c1ccc2cc(CSC(=S)N3CCCCC3)ccc2o1 [ID-8, (2-Oxo-2H-chromen-6-yl)methyl piperidine-1-carbodithioate] |  |  |  |  |
| 12.8% | 159.4 to 160.3 °C | 16.6% | CC(C)(C)N1CCN(C(=S)SCc2ccc3oc(=O)ccc3c2)CC1 [ID-14, (2-Oxo-2H-chromen-6-yl)methyl 4-(tert-butyl)piperazine-1-carbodithioate] |  |  |  |  |
| 6.5% | 115.6 to 116.5 °C | 3.2% | O=c1ccc2cc(CSC(=S)N3CCC(c4ccccc4)CC3)ccc2o1 [ID-19, (2-Oxo-2H-chromen-6-yl)methyl 4-phenylpiperidine-1-carbodithioate] |  |  |  |  |
| 36.6% | 95 to 96 °C | 29.3% | CN1CCN(C2CCN(C(=S)SCc3ccc4oc(=O)ccc4c3)CC2)CC1 [ID-20, (2-Oxo-2H-chromen-6-yl)methyl 4–(4-methylpiperazin-1-yl)piperidine-1-carbodithioate] |  |  |  |  |
| 39% | 195.5 to 196.4 °C | 27.7% | O=c1ccc2cc(CSC(=S)N3CCN(c4ccc(O)cc4)CC3)ccc2o1 [ID-17, (2-Oxo-2H-chromen-6-yl)methyl 4–(4-hydroxyphenyl)piperazine-1-carbodithioate] |  |  |  |  |
| 9.2% | 110.2 to 111.1 °C | 7.1% | O=c1ccc2cc(CSC(=S)N3CCCC3)ccc2o1 [ID-7, (2-Oxo-2H-chromen-6-yl)methyl pyrrolidine-1-carbodithioate] |  |  |  |  |
| 35.5% | 124.3 to 125.2 °C | 26.5% | CN1CCN(C(=S)SCc2ccc3oc(=O)ccc3c2)CC1 [ID-12, (2-Oxo-2H-chromen-6-yl)methyl 4-methylpiperazine-1-carbodithioate] |  |  |  |  |
| 40.2% | 120.9 to 121.8 °C | 33.3% | O=c1ccc2cc(CSC(=S)N3CCN(CCO)CC3)ccc2o1 [ID-15, (2-Oxo-2H-chromen-6-yl)methyl 4–(2-hydroxyethyl)piperazine-1-carbodithioate] |  |  |  |  |
| 15% | 137.8 to 138.7 °C | 8.7% | O=c1ccc2cc(CSC(=S)N3CC(O)C3)ccc2o1 [ID-6, (2-Oxo-2H-chromen-6-yl)methyl 3-hydroxyazetidine-1-carbodithioate] |  |  |  |  |
